Assay results published in PubChem BioAssay (NCI).
Several values for one entry are separate records, joined by “and”; a condition that tells them apart may be missing. Identical values can stand only once.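 Interpolation was linear, between the two tested concentrations surrounding the appropriate level; five concentrations were tested over 48 hours in 96-well plates. GI50 is the concentration that inhibits growth by half. TGI: concentration producing complete growth inhibition.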

Columns and labels:
Experiment in all cases: DTP human tumour cell line panel, 48 h
[1] = test system: SF-268 CNS
[2] = test system: ACHN renal
[3] = test system: HCT-116 colon
[4] = test system: 786-0 renal
[5] = test system: SNB-75 CNS
[6] = test system: SK-MEL-2 melanoma
[7] = test system: K-562 leukemia
[8] = test system: SK-MEL-5 melanoma
[9] = test system: IGROV1 ovarian
[10] = test system: MCF7 breast
[11] = test system: HCC-2998 colon
[12] = test system: MOLT-4 leukemia
[13] = test system: KM12 colon
[14] = test system: HS 578T breast
[15] = test system: NCI-H226 lung
[16] = test system: BT-549 breast
[17] = test system: CAKI-1 renal
[18] = test system: HL-60(TB) leukemia
[19] = test system: OVCAR-5 ovarian
[20] = test system: NCI-H23 lung
[21] = test system: OVCAR-3 ovarian
[22] = test system: RXF 393 renal
[23] = test system: SNB-19 CNS
[24] = test system: COLO 205 colon
[25] = test system: SK-MEL-28 melanoma
[26] = test system: HOP-62 NSCLC
[27] = test system: U251 CNS
[28] = test system: MDA-MB-231 breast
[29] = test system: DU-145 prostate
[30] = test system: NCI-H522 lung
[31] = test system: PC-3 prostate
[32] = test system: OVCAR-8 ovarian
[33] = test system: RPMI-8226 leukemia
[34] = test system: CCRF-CEM leukemia
[35] = test system: NCI/ADR-RES ovarian
[36] = test system: TK-10 renal
[37] = test system: HOP-92 NSCLC
[38] = test system: UACC-62 melanoma
[39] = test system: NCI-H460 lung
[40] = test system: MDA-N
[41] = test system: UO-31 renal
[42] = test system: HT29 colon
[43] = test system: EKVX NSCLC
[44] = test system: T-47D breast
[45] = test system: UACC-257 melanoma
[46] = test system: SK-OV-3 ovarian
[47] = test system: MDA-MB-435
[48] = test system: OVCAR-4 ovarian
[49] = test system: SW-620 colon
[50] = test system: M14 melanoma
[51] = test system: MALME-3M melanoma
[52] = test system: SF-295 CNS
[53] = test system: SR leukemia
[54] = test system: SN12C renal
[55] = test system: A549 NSCLC
[56] = test system: HCT-15 colon

CN(C)CC1CCCCCCCCCCC1=O (stereo not drawn)
GI50 [1]: > 100 µM
TGI [1]: > 100 µM
GI50 [2]: > 100 µM
TGI [2]: > 100 µM
GI50 [3]: > 100 µM
TGI [3]: > 100 µM
GI50 [4]: > 100 µM
TGI [4]: > 100 µM
TGI [5]: > 100 µM
GI50 [6]: > 100 µM
TGI [6]: > 100 µM
GI50 [7]: > 100 µM
TGI [7]: > 100 µM
TGI [8]: > 100 µM
TGI [9]: > 100 µM
GI50 [10]: > 100 µM
TGI [10]: > 100 µM
TGI [11]: > 10 µM
GI50 [12]: > 100 µM
TGI [12]: > 100 µM
GI50 [13]: > 10 µM and 78.3 µM
TGI [13]: > 100 µM
TGI [14]: > 100 µM
GI50 [15]: > 100 µM
TGI [15]: > 100 µM
GI50 [16]: > 100 µM
TGI [16]: > 100 µM
GI50 [17]: > 100 µM
TGI [17]: > 100 µM
GI50 [18]: > 100 µM
TGI [18]: > 100 µM
GI50 [19]: > 100 µM
TGI [19]: > 100 µM
GI50 [20]: > 100 µM
TGI [20]: > 100 µM
GI50 [21]: > 100 µM
TGI [21]: > 100 µM
TGI [22]: > 10 µM
GI50 [23]: > 100 µM
TGI [23]: > 100 µM
GI50 [24]: > 100 µM
TGI [24]: > 100 µM
TGI [25]: > 100 µM
GI50 [26]: > 100 µM
TGI [26]: > 100 µM
GI50 [27]: > 100 µM
TGI [27]: > 100 µM
TGI [28]: > 10 µM
GI50 [29]: > 100 µM
TGI [29]: > 100 µM
GI50 [30]: > 100 µM
TGI [30]: > 100 µM
GI50 [31]: > 100 µM
TGI [31]: > 100 µM
TGI [32]: > 10 µM
TGI [33]: > 100 µM
GI50 [34]: > 10 µM and 99.4 µM
TGI [34]: > 100 µM
GI50 [35]: > 100 µM
TGI [35]: > 100 µM
GI50 [36]: > 100 µM
TGI [36]: > 100 µM
GI50 [37]: > 100 µM
TGI [37]: > 100 µM
TGI [38]: > 100 µM
GI50 [39]: > 100 µM
TGI [39]: > 100 µM
GI50 [40]: > 100 µM
TGI [40]: > 100 µM
GI50 [41]: > 100 µM
TGI [41]: > 100 µM
GI50 [42]: > 10 µM and 98.4 µM
TGI [42]: > 100 µM
GI50 [43]: > 100 µM
TGI [43]: > 100 µM
GI50 [44]: > 100 µM
TGI [44]: > 100 µM
TGI [45]: > 10 µM
TGI [46]: > 100 µM
GI50 [47]: > 100 µM
TGI [47]: > 100 µM
GI50 [48]: > 100 µM
TGI [48]: > 100 µM
GI50 [49]: > 100 µM
TGI [49]: > 100 µM
GI50 [50]: > 100 µM
TGI [50]: > 100 µM
GI50 [51]: > 100 µM
TGI [51]: > 100 µM
TGI [52]: > 10 µM
GI50 [53]: > 100 µM
TGI [53]: > 100 µM
GI50 [54]: > 100 µM
TGI [54]: > 100 µM
GI50 [55]: > 100 µM
TGI [55]: > 100 µM
GI50 [56]: > 100 µM
TGI [56]: > 100 µM
